Here are results for four molecules from US6514954B1, “Pesticidal compositions” (priority 1997, dated 2003).

The assay has as its system Myzus persicae. Put plainly: Example B6: action against Myzus persicae (leaf circle bioassay, sprayed Capsicum plants). It counts as in vivo. The conditions noted are these: 96 h, read-out: Action % (mortality of nymphs). The source says: A synergistic effect is always present if the action EA of the combination of an active compound of the formula (A) with one of the active compounds (I) to (XXXI) is greater than the sum of the action of the active compounds applied individually:
However, the pesticidal action EA to be expected for a given combination of two pesticides can also be calculated as follows (cf. COLBY, S. R., “Calculating synergistic and antagonistic response of herbicide combinations”, Weeds 15, Pages 20-22, 1967): [formula]
X=Percent mortality on treatment with the compound of the formula (A) at a rate of application of p kg per hectare compared with the untreated control (=0%).
Y=Percent mortality on treatment with a compound (I) to (XXXI) at a rate of application of q kg per hectare compared with the untreated control.
EA=Expected pesticidal action (percent mortality compared with the untreated control) after treatment with the compound of the formula (A) and a compound (I) to (XXXI) at a rate of application of p+q kg of active compound per hectare.
If the action actually observed is greater than the expected value EA, synergism exists.
Action Against Myzus persicae
Capsicum plants (Capsicum annuum L.) 6 weeks old are sprayed with an aqueous emulsion spray liquor which comprises the individual compounds and mixtures according to the following table. The plants were placed in a greenhouse until determination of the activity.
The activity against Myzus persicae was measured in bioassays. 2-4 hours after application, circles of leaf are stamped out, placed with the upper side down on agar in Petri dishes and infested with an M. persicae mixed population consisting of 40-50 non-synchronous individuals. A total of 9 circles of leaf per concentration are used. The Petri dishes are covered with a cotton wool filter, closed with a plastic lid and placed in a climatically controlled chamber for plants. One day after infestation, the circles of leaf are cleaned of adults, skins and nymphs, so that only 25-40 nymphs laid overnight remain per circle of leaf. Four days after infestation, the mortality is determined by counting the dead and living nymphs. The tests are carried out 3 times. The results shown in the table are the average values of the tests.

Structures are written as SMILES.

Consider `CC1(C)C(C=C(Cl)Cl)C1C(=O)OC(C#N)c1cccc(Oc2ccccc2)c1` (racemic) [Cypermethrin high-cis, (RS)-α-cyano-3-phenoxybenzyl (1RS)-cis-trans-3-(2,2-dichlorvinyl)-1,1-dimethylcyclo-propanecarboxylate], for which the mortality at 600 ppm (Conc. 600 ppm, four days after infestation, average of 3 tests) amounted to 8.2%.
Take `CN1COCN(Cc2cnc(Cl)s2)C1=N[N+](=O)[O-]` [A.5, 5-(2-chlorothiazol-5-ylmethyl)-3-methyl-4-nitroimino-perhydro-1,3,5-oxadiazine]: where the note is “Conc. 0.1 ppm, four days after infestation, average of 3 tests”, the mortality at 0.1 ppm is 5.9%. Where the note is “Conc. 0.2 ppm, four days after infestation, average of 3 tests”, the mortality at 0.2 ppm worked out at 35%.
For `CC1=NNC(=O)N(N=Cc2cccnc2)C1` [Pymetrozine, 2,3,4,5-tetrahydro-3-oxo-4-[(pyridin-3-yl)-methyleneamino]-6-methyl-1,2,4-triazine], the mortality at 0.3 ppm (Conc. 0.3 ppm, four days after infestation, average of 3 tests) is 38.4%.
For the molecule `CCCSP(=O)(OCC)Oc1ccc(Br)cc1Cl` (centres unmarked) [Profenofos, O-4-bromo-2-chlorophenyl O-ethyl S-propyl phosphorothioate], the mortality at 35 ppm stood at 12.3%.
